Data as given in publication PMC12084609, “Structural insights into small-molecule agonist recognition and activation of complement receptor C3aR” (The EMBO Journal, 2025).
Changes are numbered by the printed parent chain. Values joined by “and” are separate entries in the source; they are usually repeats but may differ in a detail not shown here. Equal entries are not always repeated. Where two headings read alike, the source gives them in different places.

Experiments:
Format in all cases: cell-based
C3aR I421^7.39A = molecular target: T1, C3aR I421^7.39A (Homo sapiens, UniProt Q16581, I421A); assay: GloSensor-based cAMP assay, C3aR mutant I421A
T1 construct: expressed in transfected cells; host or cells: HEK293T
T1 sequence (Q16581 1-482 I421A): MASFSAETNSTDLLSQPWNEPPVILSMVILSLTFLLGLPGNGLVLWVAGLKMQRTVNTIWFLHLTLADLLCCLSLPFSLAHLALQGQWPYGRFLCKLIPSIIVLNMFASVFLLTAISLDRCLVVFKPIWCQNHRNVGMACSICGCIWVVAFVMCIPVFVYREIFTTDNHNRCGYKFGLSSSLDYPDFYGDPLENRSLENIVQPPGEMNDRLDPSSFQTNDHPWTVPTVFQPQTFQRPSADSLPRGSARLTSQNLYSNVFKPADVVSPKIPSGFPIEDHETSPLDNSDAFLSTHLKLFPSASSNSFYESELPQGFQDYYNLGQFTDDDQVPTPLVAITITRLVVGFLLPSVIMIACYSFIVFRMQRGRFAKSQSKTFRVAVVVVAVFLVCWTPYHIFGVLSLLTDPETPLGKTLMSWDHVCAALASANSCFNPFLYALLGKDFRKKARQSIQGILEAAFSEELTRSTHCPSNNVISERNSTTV
Protocol: (§1) HEK293T cells were seeded on 6-well plates (NEST) and transfected with pGlosensor™-22F plasmids (Promega) and pcDNA3.1 plasmids encoding C3aR or its mutants an with N-terminal FLAG tag. After 48 h, cells were detached with Accutase solution (Sigma-Aldrich) and washed with PBS, and resuspended in assay buffer (CO2-independent medium with 0.5 mg mL^−1D-luciferin). 100,000–200,000 cells were seeded on 96-well white bottom plates (SPL) and incubated at 37 °C for 45 min followed by 45 min incubation at room temperature. After 90 min of incubation, basal luminescence signals were recorded. In total, 25 μl of test ligand with various concentrations and 1 μM Forskolin (Sigma-Aldrich) were treated to the cells and luminescence signals were measured by Tristar 2 LB 942 multimode reader (Berthold). […] Relative luminescence unit (%) was calculated with the signal of wells treated with vehicle as 0% and the signal of wells treated with 1 μM Forskolin as 100% (DiRaddo et al, [2014]). Nonlinear regression was performed using a three-parameter logistic equation.

C3aR P99^3.29A = molecular target: T2, C3aR P99^3.29A (Homo sapiens, UniProt Q16581, P99A); assay: GloSensor-based cAMP assay, C3aR mutant P99A
T2 construct: expressed in transfected cells; host or cells: HEK293T
T2 sequence (Q16581 1-482 P99A): T1 sequence (Q16581 1-482 I421A) with P99A, A421I
Protocol: as §1

C3aR H418^7.36A = molecular target: T3, C3aR H418^7.36A (Homo sapiens, UniProt Q16581, H418A); assay: GloSensor-based cAMP assay, C3aR mutant H418A
T3 construct: expressed in transfected cells; host or cells: HEK293T
T3 sequence (Q16581 1-482 H418A): T1 sequence (Q16581 1-482 I421A) with H418A, A421I
Protocol: as §1

[1] = Dunnett's multiple comparisons test, WT minus mutant

Cc1cc(C(c2ccc(Cl)cc2)c2ccc(Cl)cc2)sc1C(=O)N[C@@H](CCCNC(=N)N)C(=O)O [JR14a, reference compound]
Mean Diff. of pIC50, WT vs. I421A (C3aR I421^7.39A; [1]): 1.797
remaining activity at 0.01 µM (C3aR I421^7.39A; I421A, Log[JR14a (M)] -8, single replicates, read-out: cAMP response (% Forskolin)): 91.4%
remaining activity at 0.001 µM (C3aR I421^7.39A; I421A, Log[JR14a (M)] -9, single replicates, read-out: cAMP response (% Forskolin)): 92.7%
remaining activity at 0.0001 µM (C3aR I421^7.39A; I421A, Log[JR14a (M)] -10, single replicates, read-out: cAMP response (% Forskolin)): 96.4%
remaining activity at 10 pM (C3aR I421^7.39A; I421A, Log[JR14a (M)] -11, single replicates, read-out: cAMP response (% Forskolin)): 93.5%
reduction in ligand-induced signaling vs WT (C3aR I421^7.39A; I421^7.39A mutant): 60 fold
ΔpIC50 ± SE of Diff. (C3aR I421^7.39A; I421^7.39A relative to WT C3aR): -1.80 ± 0.06
IC50 (C3aR I421^7.39A; IC50, I421^7.39A, dose-response plot): 204 nM
IC50 (C3aR I421^7.39A; pIC50 (Replicate), I421^7.39A, individual replicates): 229 nM and 263 nM and 331 nM and 115 nM
IC50 (C3aR I421^7.39A; pIC50 ± SEM (Mean), I421^7.39A, mean of independent experiments): 219 nM
Mean Diff. of pIC50, WT vs. P99A (C3aR P99^3.29A; [1]): -0.103
IC50 (C3aR P99^3.29A; IC50, P99^3.29A, dose-response plot): 4.08 nM
remaining activity at 1 µM (C3aR P99^3.29A; P99A, Log[JR14a (M)] -6, single replicates, read-out: cAMP response (% Forskolin)): 8.38%
remaining activity at 0.1 µM (C3aR P99^3.29A; P99A, Log[JR14a (M)] -7, single replicates, read-out: cAMP response (% Forskolin)): 9.9%
remaining activity at 0.001 µM (C3aR P99^3.29A; P99A, Log[JR14a (M)] -9, single replicates, read-out: cAMP response (% Forskolin)): 77.4%
remaining activity at 0.0001 µM (C3aR P99^3.29A; P99A, Log[JR14a (M)] -10, single replicates, read-out: cAMP response (% Forskolin)): 102%
remaining activity at 10 pM (C3aR P99^3.29A; P99A, Log[JR14a (M)] -11, single replicates, read-out: cAMP response (% Forskolin)): 104%
ΔpIC50 ± SE of Diff. (C3aR P99^3.29A; P99^3.29A relative to WT C3aR): 0.10 ± 0.06
decrease in IC50 values vs WT (C3aR P99^3.29A; P99^3.29 to Ala, relatively mild effect on downstream signaling): < 10 fold
IC50 (C3aR P99^3.29A; pIC50 (Replicate), P99^3.29A, individual replicates): 4.9 nM and 5.25 nM and 2.69 nM
Mean Diff. of pIC50, WT vs. H418A (C3aR H418^7.36A; [1]): -0.145
ΔpIC50 ± SE of Diff. (C3aR H418^7.36A; H418^7.36A relative to WT C3aR): 0.14 ± 0.08
IC50 (C3aR H418^7.36A; H418^7.36A, mean of independent experiments, read-out: pIC50 ± SEM (Mean) (converted)): 2.51 nM
IC50 (C3aR H418^7.36A; IC50, H418^7.36A, dose-response plot): 2.56 nM
IC50 (C3aR H418^7.36A; pIC50 (Replicate), H418^7.36A, individual replicates): 2.04 nM and 4.07 nM and 4.79 nM and 0.977 nM
